ChEMBL document CHEMBL4689842, “EUbOPEN Chemogenomics Library wave 1” (2021)

Assays:
Format in all cases: toxicity, cell-based
Fibroblast = assay: Incucyte cell viability with human fibroblast; settings: 10 µM, compound concentration 10 uM
HEK-293T = assay: Incucyte cell viability with HEK293T; settings: human, 10 µM, compound concentration 10 uM
U2OS = assay: Incucyte cell viability with U2OS; settings: human, 10 µM, compound concentration 10 uM
[1] = 0 h, replicate number 1, timepoint 0 hours
[2] = 6 h, replicate number 1, timepoint 6 hours
[3] = 6 h, replicate number 2, timepoint 6 hours
[4] = 12 h, replicate number 1, timepoint 12 hours
[5] = 18 h, replicate number 1, timepoint 18 hours
[6] = 24 h, replicate number 1, timepoint 24 hours
[7] = 12 h, replicate number 2, timepoint 12 hours
[8] = 24 h, replicate number 2, timepoint 24 hours
[9] = 18 h, replicate number 2, timepoint 18 hours
[10] = 0 h, replicate number 2, timepoint 0 hours
Note: filed as whole numbers so only -1 and 0 and 1 occur.

SMILES | Growth Rate (Fibroblast; [1]) | Growth Rate (Fibroblast; [2]) | Growth Rate (Fibroblast; [3]) | Growth Rate (Fibroblast; [4]) | Growth Rate (Fibroblast; [5]) | Growth Rate (Fibroblast; [6]) | Growth Rate (HEK-293T; [1]) | Growth Rate (HEK-293T; [2]) | Growth Rate (HEK-293T; [3]) | Growth Rate (HEK-293T; [4]) | Growth Rate (HEK-293T; [5]) | Growth Rate (HEK-293T; [6]) | Growth Rate (U2OS; [1]) | Growth Rate (U2OS; [3]) | Growth Rate (U2OS; [4]) | Growth Rate (U2OS; [7]) | Growth Rate (U2OS; [5]) | Growth Rate (U2OS; [6]) | Growth Rate (Fibroblast; [9]) | Growth Rate (HEK-293T; [9]) | further results
O=C(O)CC/C=C\C[C@@H]1CO[C@H](c2ccccc2Cl)O[C@@H]1c1ccccc1O | 0 | 1 | 0 | 1 | 1 | 1 | 0 | 1 | 0 | 1 | 1 | 1 | 0 | 0 | 1 | 0 | 0 | 1 | – | – | Growth Rate (HEK-293T; [7]): 0; Growth Rate (U2OS; [8]): 0
Cc1csc(NC(=O)c2cc(F)cc(Oc3cncnc3)c2)n1 | 0 | 0 | – | 0 | 1 | 1 | 0 | 1 | – | 0 | 1 | 1 | – | 0 | 0 | – | 0 | 0 | 0 | 0 | Growth Rate (Fibroblast; [8]): 0; Growth Rate (HEK-293T; [7]): 1; Growth Rate (HEK-293T; [8]): 0; Growth Rate (U2OS; [2]): 1; Growth Rate (U2OS; [9]): 1; Growth Rate (U2OS; [8]): 1
CC1(C)CCC(C)(C)c2cc(C(=O)Nc3ccc(C(=O)O)cc3)ccc21 | 0 | 1 | 0 | 1 | 1 | 1 | 0 | 1 | – | 1 | 1 | 1 | 0 | 1 | 1 | – | 1 | 1 | 0 | – | Growth Rate (Fibroblast; [7]): 0
O=C(Cc1ccccc1)Nc1nc2ccc(Cl)cc2c2nc(-c3ccco3)nn12 | 0 | – | 0 | 0 | 0 | 0 | 1 | 0 | 1 | 0 | 0 | 0 | 0 | 0 | 1 | 0 | 1 | 1 | 1 | – | Growth Rate (Fibroblast; [10]): 1; Growth Rate (Fibroblast; [7]): 1; Growth Rate (Fibroblast; [8]): 1; Growth Rate (HEK-293T; [10]): 0; Growth Rate (U2OS; [9]): 0; Growth Rate (U2OS; [8]): 0
COc1ccc(-c2ccc3cc(C(=O)O)ccc3c2)cc1C12CC3CC(CC(C3)C1)C2 | 1 | 0 | – | 0 | 0 | 0 | 0 | 1 | 0 | 0 | 0 | 0 | 0 | 0 | 1 | 0 | 0 | 0 | 1 | 1 | –
O=C(NCc1ncc(C(F)(F)F)cc1Cl)c1ccc2c(c1)C1(CCS(=O)(=O)CC1)[C@@H](C1CC1)N2S(=O)(=O)c1ccc(F)cc1 [BAY-786] | 0 | 1 | – | 1 | 1 | 1 | 0 | 1 | – | 0 | 0 | 0 | 0 | 0 | 1 | – | 1 | 0 | – | 1 | Growth Rate (Fibroblast; [10]): 1; Growth Rate (HEK-293T; [7]): 1; Growth Rate (HEK-293T; [8]): 1; Growth Rate (U2OS; [9]): 0
Cn1c(CNc2cccc(C(=O)NCc3ccccc3C(F)(F)F)c2)nnc1-c1ccncc1 | 1 | 0 | – | 0 | 0 | 0 | 0 | – | – | – | – | – | – | – | 0 | 1 | 0 | 0 | – | – | Growth Rate (Fibroblast; [10]): 0; Growth Rate (HEK-293T; [8]): 1; Growth Rate (U2OS; [10]): 0; Growth Rate (U2OS; [2]): 0
CC(C)(O)c1ccccc1CC[C@@H](SCC1(CC(=O)[O-])CC1)c1cccc(/C=C/c2ccc3ccc(Cl)cc3n2)c1.[Na+] [MONTELUKAST SODIUM] | 0 | – | 0 | 1 | 1 | 1 | 0 | 1 | 0 | 0 | 1 | 1 | 0 | 0 | 1 | – | 1 | 1 | – | 0 | Growth Rate (HEK-293T; [8]): 0
